Data on 17 molecules can be found in patent US20220144854A1, “MACROCYCLIC COMPOUNDS” (ZENO MANAGEMENT, INC., priority 2019, published 2022).

Assay [1] deals with NCI-H929 (ATCC CRL-9068) cells. Description: NCI-H929 cell proliferation assay (CellTiter-Glo). The class given is cell-based. The note with it: 72 h of compound treatment. Here is the method: Cell proliferation was measured using the CellTiter-Glo® Luminescent Cell Viability Assay. The assay involved the addition of a single reagent (CellTiter-Glo® Reagent) directly to cells cultured in serum-supplemented medium.
Each compound evaluated was prepared as a DMSO stock solution (10 mM). Compounds were tested in duplicate on each plate, with a 10-point serial dilution curve (1:3 dilution). Compound treatment ([…]) was added from the compound dilution plate to the cell plate. The highest compound concentration was 10 μM (final), with a 0.1% final DMSO concentration. Plates were then incubated at 37° C., 5% CO2. After 72 h of compound treatment, cell plates were equilibrated at rt for approximately 30 mins. An equi-volume amount of CellTiter-Glo® Reagent (40 μL) was added to each well. Plates were mixed for 2 mins on an orbital shaker to induce cell lysis and then incubated at rt for 10 mins to stabilize the luminescent signal. Luminescence was recorded using an Envision plate reader according to CellTiter-Glo protocol. IC50 of each compound was calculated using GraphPad Prism by nonlinear regression analysis.
On the technique in general: Cellular ATP, detected with luciferase, serves as a proxy for viable cell number.

The target in the next assay is Mcl-1 (Homo sapiens, UniProt Q07820). Description: Mcl-1 Homogeneous Time Resolved Fluorescence (HTRF) binding assay.
Where [2] appears, read: HTRF, 4 nM Mcl-1, 100 nM FAM-Bak peptide, 10-dose, singlicate, read-out: Mcl-1 IC50.

SMILES strings stand for the structures. Where two headings read alike, the source gives them in different places.

Mcl-1, sequence (Q07820 whole entry): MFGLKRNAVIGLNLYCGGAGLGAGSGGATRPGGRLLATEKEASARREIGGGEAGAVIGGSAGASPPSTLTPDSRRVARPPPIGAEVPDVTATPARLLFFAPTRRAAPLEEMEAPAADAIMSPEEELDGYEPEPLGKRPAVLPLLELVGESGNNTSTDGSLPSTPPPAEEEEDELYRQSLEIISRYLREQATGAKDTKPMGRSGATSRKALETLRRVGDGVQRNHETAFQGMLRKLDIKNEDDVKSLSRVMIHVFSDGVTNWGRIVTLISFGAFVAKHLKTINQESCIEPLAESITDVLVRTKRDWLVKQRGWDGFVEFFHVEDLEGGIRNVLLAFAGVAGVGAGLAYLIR

Broadly, the IC50 is the concentration that gives 50% inhibition. Regarding `Cc1nn(C23CC(C2)C3)c2c1-c1c(Cl)ccc3c(c(C(=O)O)n(C)c13)CCCOc1cc(cc3ccccc13)SCc1cc(nn1C)CSC2` (single isomer, unassigned) [Example 20A, (Z)-2^1-(Bicyclo[1.1.1]pentan-1-yl)-1^6-chloro-1^1,2^3,6^1-trimethyl-1^1H,2^1H,6^1H-10-oxa-4,8-dithia-1(7,3)-indola-2(4,5),6(3,5)-dipyrazola-9(3,1)-naphthalenacyclotridecaphane-1^2-carboxylic acid], the half-inhibitory concentration (IC50) is more than 1000 nM in assay [1] and 10 to 100 nM at Mcl-1 (setting [2]).

`Cc1nn(C23CC(C2)C3)c2c1-c1c(Cl)ccc3c(c(C(=O)O)n(C)c13)CCCOc1cc(cc3ccccc13)SCc1cc(nn1C)CSC2` (single isomer, unassigned) [Example 20B, (Z)-2^1-(Bicyclo[1.1.1]pentan-1-yl)-1^6-chloro-1^1,2^3,6^1-trimethyl-1^1H,2^1H,6^1H-10-oxa-4,8-dithia-1(7,3)-indola-2(4,5),6(3,5)-dipyrazola-9(3,1)-naphthalenacyclotridecaphane-1^2-carboxylic acid]: the values for the IC50 (in assay [1]; at Mcl-1 (setting [2])) were less than 100 nM and less than 10 nM, respectively.

For the molecule `Cn1nc2cc1CSc1cc(c3ccccc3c1)OCCCc1c(C(=O)O)n(C)c3c(c(Cl)ccc13)-c1c(nn3c1CCCC3)CSC2` (single isomer, unassigned) [Example 2B, (Z)-1^6-Chloro-1^1,6^1-dimethyl-2^4,2^5,2^6,2^7-tetrahydro-1^1H,6^1H-10-oxa-4,8-dithia-2(3,2)-pyrazolo[1,5-a]pyridina-1(7,3)-indola-6(3,5)-pyrazola-9(3,1)-naphthalenacyclotridecaphane-1^2-carboxylic acid], the IC50 in assay [1] was more than 1000 nM; on Mcl-1 (setting [2]) it was 10 to 100 nM.

As for `Cc1[nH]nc2c1-c1c(Cl)ccc3c(c(C(=O)O)n(C)c13)CCCOc1cc(cc3ccccc13)SCc1cc(nn1C)CSC2` (single isomer, unassigned) [Example 6B, (Z)-1^6-Chloro-1^1,2^5,6^1-trimethyl-1^1H,2^1H,6^1H-10-oxa-4,8-dithia-1(7,3)-indola-2(4,3),6(3,5)-dipyrazola-9(3,1)-naphthalenacyclotridecaphane-1^2-carboxylic acid], the IC50 is more than 1000 nM in assay [1] and 10 to 100 nM at Mcl-1 (setting [2]).

With `Cn1nc2cc1CSc1cc(c3ccccc3c1)OCCCc1c(C(=O)O)n(C)c3c(c(Cl)ccc13)-c1c(nn(C)c1C#N)CSC2` (single isomer, unassigned) [Example 1B, (Z)-1^6-Chloro-2^5-cyano-1^1,2^1,6^1-trimethyl-1^1H,2^1H,6^1H-10-oxa-4,8-dithia-1(7,3)-indola-2(4,3),6(3,5)-dipyrazola-9(3,1)-naphthalenacyclotridecaphane-1^2-carboxylic acid], the IC50 was more than 1000 nM in assay [1] and more than 100 nM at Mcl-1 (setting [2]).

As to `Cc1c2c(nn1C)CSCc1cc(n(C)n1)CSc1cc(c3ccccc3c1)OCCCc1c(C(=O)O)n(C)c3c-2c(F)ccc13` (single isomer, unassigned) [Example 14A, (Z)-1^6-Fluoro-1^1,2^1,2^5,6^1-tetramethyl-1^1H,2^1H,6^1H-10-oxa-4,8-dithia-1(7,3)-indola-2(4,3),6(3,5)-dipyrazola-9(3,1)-naphthalenacyclotridecaphane-1^2-carboxylic acid], the IC50 was less than 100 nM in assay [1] (Homo sapiens, NCI-H929, 72 h) and less than 10 nM at Mcl-1 (setting [2]).

As for `Cn1nc2cc1CSc1cc(c3ccccc3c1)OCCCc1c(C(=O)O)n(C)c3c(c(Cl)ccc13)-c1c(nn3c1COCC3)CSC2` (single isomer, unassigned) [Example 4B, (Z)-1^6-Chloro-1^1,6^1-dimethyl-2^6,2^7-dihydro-1^1H,2^4H,6^1H-10-oxa-4,8-dithia-2(3,2)-pyrazolo[5,1-c][1,4]oxazina-1(7,3)-indola-6(3,5)-pyrazola-9(3,1)-naphthalenacyclotridecaphane-1^2-carboxylic acid], the half-maximal inhibitory concentration (IC50) in assay [1] is more than 1000 nM; on Mcl-1 (setting [2]), 10 to 100 nM.

Regarding `Cc1nn(C)c2c1-c1c(F)ccc3c(c(C(=O)O)n(C)c13)CCCOc1cc(cc3ccccc13)SCc1cc(nn1C(C)C)CSC2` (single isomer, unassigned) [Example 16A, (Z)-1^6-Fluoro-6^1-isopropyl-1^1,2^1,2^3-trimethyl-1^1H,2^1H,6^1H-10-oxa-4,8-dithia-1(7,3)-indola-2(4,5),6(3,5)-dipyrazola-9(3,1)-naphthalenacyclotridecaphane-1^2-carboxylic acid], the IC50 in assay [1] was less than 100 nM; on Mcl-1 (setting [2]) it was less than 10 nM.

Take `Cc1nn(C)c2c1-c1c(F)ccc3c(c(C(=O)O)n(C)c13)CCCOc1cc(cc3ccccc13)SCc1cc(nn1CC(C)C)CSC2` (single isomer, unassigned) [Example 17A, (Z)-1^6-Fluoro-6^1-isobutyl-1^1,2^1,2^3-trimethyl-1^1H,2^1H,6^1H-10-oxa-4,8-dithia-1(7,3)-indola-2(4,5),6(3,5)-dipyrazola-9(3,1)-naphthalenacyclotridecaphane-1^2-carboxylic acid]: the concentration for half-maximal inhibition (IC50) in assay [1] is more than 1000 nM; on Mcl-1 (setting [2]) it was more than 100 nM.

Regarding `Cn1nc2cc1CSc1cc(c3ccccc3c1)OCCCc1c(C(=O)O)n(C)c3c(c(Cl)ccc13)-c1c(nn(C)c1C#N)CSC2` (single isomer, unassigned) [Example 1A, (Z)-1^6-Chloro-2^5-cyano-1^1,2^1,6^1-trimethyl-1^1H,2^1H,6^1H-10-oxa-4,8-dithia-1(7,3)-indola-2(4,3),6(3,5)-dipyrazola-9(3,1)-naphthalenacyclotridecaphane-1^2-carboxylic acid], the results for the IC50 (in assay [1]; on Mcl-1 (setting [2])) were 100 to 1000 nM and less than 10 nM, respectively.

With `Cc1nn(C23CC(C2)C3)c2c1-c1c(Cl)ccc3c(c(C(=O)O)n(C)c13)CCCOc1cc(cc3ccccc13)SCc1cc(n[nH]1)CSC2` (single isomer, unassigned) [Example 21B, (Z)-2^1-(Bicyclo[1.1.1]pentan-1-yl)-1^6-chloro-1^1,2^3-dimethyl-1^1H,2^1H,6^1H-10-oxa-4,8-dithia-1(7,3)-indola-2(4,5),6(3,5)-dipyrazola-9(3,1)-naphthalenacyclotridecaphane-1^2-carboxylic acid], the IC50 in assay [1] (Homo sapiens, NCI-H929, 72 h) is less than 100 nM; at Mcl-1 (setting [2]) it was less than 10 nM.

With `Cc1c2c(nn1C)CSCc1cc(n(C(C)C)n1)CSc1cc(c3ccccc3c1)OCCCc1c(C(=O)O)n(C)c3c-2c(Cl)ccc13` (single isomer, unassigned) [Example 10A, (Z)-1^6-Chloro-6^1-isopropyl-1^1,2^1,2^5-trimethyl-1^1H,2^1H,6^1H-10-oxa-4,8-dithia-1(7,3)-indola-2(4,3),6(3,5)-dipyrazola-9(3,1)-naphthalenacyclotridecaphane-1^2-carboxylic acid], the IC50 in assay [1] (Homo sapiens, NCI-H929, 72 h) is less than 100 nM; at Mcl-1 (setting [2]) it was less than 10 nM.

Take `CCn1nc2cc1CSc1cc(c3ccccc3c1)OCCCc1c(C(=O)O)n(C)c3c(c(F)ccc13)-c1c(C)nn(C)c1CSC2` (single isomer, unassigned) [Example 15A, (Z)-6^1-Ethyl-1^6-fluoro-1^1,2^1,2^3-trimethyl-1^1H,2^1H,6^1H-10-oxa-4,8-dithia-1(7,3)-indola-2(4,5),6(3,5)-dipyrazola-9(3,1)-naphthalenacyclotridecaphane-1^2-carboxylic acid]: the IC50 is more than 1000 nM in assay [1] (Homo sapiens, NCI-H929, 72 h) and more than 100 nM at Mcl-1 (setting [2]).

`Cn1nc2cc1CSc1cc(c3ccccc3c1)OCCCc1c(C(=O)O)n(C)c3c(c(Cl)ccc13)-c1c(nn3c1CSC3)CSC2` (single isomer, unassigned) [Example 5B, (Z)-1^6-Chloro-1^1,6^1-dimethyl-1^1H,2^4H,2^6H,6^1H-10-oxa-4,8-dithia-2(3,2)-pyrazolo[1,5-c]thiazola-1(7,3)-indola-6(3,5)-pyrazola-9(3,1)-naphthalenacyclotridecaphane-1^2-carboxylic acid]: the IC50 in assay [1] is more than 1000 nM; on Mcl-1 (setting [2]) it was more than 100 nM.

In the case of `Cc1c2c(nn1C)CSCc1cc(n[nH]1)CSc1cc(c3ccccc3c1)OCCCc1c(C(=O)O)n(C)c3c-2c(Cl)ccc13` (single isomer, unassigned) [Example 11B, (Z)-1^6-Chloro-1^1,2^1,2^5-trimethyl-1^1H,2^1H,6^1H-10-oxa-4,8-dithia-1(7,3)-indola-2(4,3),6(3,5)-dipyrazola-9(3,1)-naphthalenacyclotridecaphane-1^2-carboxylic acid], the IC50 in assay [1] (Homo sapiens) was less than 100 nM; at Mcl-1 (Mcl-1 IC50 (nM)), less than 10 nM.

On to `Cc1nn(C)c2c1-c1c(F)ccc3c(c(C(=O)O)n(C)c13)CCCOc1cc(cc3ccccc13)SCc1cc(nn1CC1CC1)CSC2` (single isomer, unassigned) [Example 18A], for which the IC50 was more than 1000 nM in assay [1] (Homo sapiens, NCI-H929, 72 h) and more than 100 nM on Mcl-1 (setting [2]).

`Cc1[nH]nc2c1-c1c(Cl)ccc3c(c(C(=O)O)n(C)c13)CCCOc1cc(cc3ccccc13)SCc1cc(nn1C(C)C)CSC2` (single isomer, unassigned) [Example 9A, (Z)-1^6-Chloro-6^1-isopropyl-1^1,2^5-dimethyl-1^1H,2^1H,6^1H-10-oxa-4,8-dithia-1(7,3)-indola-2(4,3),6(3,5)-dipyrazola-9(3,1)-naphthalenacyclotridecaphane-1^2-carboxylic acid]: the IC50 in assay [1] (Homo sapiens, NCI-H929, 72 h) is 100 to 1000 nM; at Mcl-1 (setting [2]) it was less than 10 nM.
